Measured values from US5391554A, “Dihydro- and tetrahydronaphthyridines” (Warner-Lambert Company, priority 1992, dated 1995).
“Also recorded” adds a separate entry of the source. Where two headings read alike, the source gives them in different places.

What was measured:
[1] = system: repair of damage caused by ionizing radiation; settings: background; cited from earlier work
[2] = target: T1, Poly (ADP-ribose) synthetase (Bos taurus, UniProt P18493); assay: Inhibition of Poly (ADP-ribose) synthetase (ADPRP inhibition); format: biochemical; settings: [3H]NAD, calf thymus DNA and histone, pH 8.0, 30° C., 15 minutes
T1 construct: Poly(ADP-ribose) synthetase from calf thymus; from tissue; host or cells: calf thymus
T1 sequence (P18493 whole entry): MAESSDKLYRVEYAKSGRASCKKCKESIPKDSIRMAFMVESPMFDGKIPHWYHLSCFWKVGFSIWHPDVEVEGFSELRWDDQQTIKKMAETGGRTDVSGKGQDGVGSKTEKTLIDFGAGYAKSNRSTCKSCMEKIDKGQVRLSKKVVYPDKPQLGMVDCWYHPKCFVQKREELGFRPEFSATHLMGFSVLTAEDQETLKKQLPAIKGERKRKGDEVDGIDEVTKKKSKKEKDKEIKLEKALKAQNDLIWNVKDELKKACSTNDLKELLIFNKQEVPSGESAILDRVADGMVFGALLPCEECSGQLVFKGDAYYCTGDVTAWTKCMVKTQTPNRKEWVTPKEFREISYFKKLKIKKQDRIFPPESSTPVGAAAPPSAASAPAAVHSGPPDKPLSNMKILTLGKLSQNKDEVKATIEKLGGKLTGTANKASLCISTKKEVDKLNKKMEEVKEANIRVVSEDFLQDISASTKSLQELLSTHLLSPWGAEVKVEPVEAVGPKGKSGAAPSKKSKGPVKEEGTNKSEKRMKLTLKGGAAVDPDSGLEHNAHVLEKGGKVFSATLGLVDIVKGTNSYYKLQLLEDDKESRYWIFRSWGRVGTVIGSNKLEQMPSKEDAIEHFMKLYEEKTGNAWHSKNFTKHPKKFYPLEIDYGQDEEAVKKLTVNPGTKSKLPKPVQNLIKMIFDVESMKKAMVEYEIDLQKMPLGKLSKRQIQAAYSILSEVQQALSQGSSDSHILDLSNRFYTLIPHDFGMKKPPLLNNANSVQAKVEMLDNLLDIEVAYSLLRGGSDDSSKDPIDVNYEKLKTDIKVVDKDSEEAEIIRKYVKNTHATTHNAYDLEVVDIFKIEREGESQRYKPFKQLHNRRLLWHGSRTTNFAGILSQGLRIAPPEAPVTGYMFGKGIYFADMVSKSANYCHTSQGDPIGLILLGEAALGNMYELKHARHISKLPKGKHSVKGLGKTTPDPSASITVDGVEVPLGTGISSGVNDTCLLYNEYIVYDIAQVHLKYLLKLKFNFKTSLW
Description: Poly (ADP-ribose) synthetase is partially purified by the procedure of Shizuta, et al, up to and including the DNA-agarose column step. Active fractions are pooled and stored in small aliquots at -90° C. The specific activity was generally in the range of 25 U/rag protein, where one unit of enzyme activity is defined as the amount polymerizing 1 nmol of ADP-ribose moiety from [^3 H]NAD per minute at 30° C.
The enzyme assay is performed by placing the following in small glass tubes kept at 4° C.: 100 μL of buffer consisting of 0.5 M Tris-HCl pH 8.0, 50 mM MgCl2, and 5 mM dithiothreitol; 50 μL of 1 mM [adenine-2,8-^3 H]nicotinamide adenine dinucleotide at a concentration of 15 μCi/mL; 100 μL of calf thymus DNA (0.3 mg/mL in water); 50 μL of calf thymus histone (Sigma, Type IIA, 0.5 mg/mL); 50 μL of inhibitor or inhibitor solvent; 150 μL of enzyme (25 μg). The components are thoroughly mixed and warmed to 30° C. in a water bath. After 15 minutes the reaction is stopped by adding 2 mL of ice cold 15% trichloroacetic acid and the tubes are placed on ice for 15 minutes. The precipitate is collected on glass fiber filters and washed five times with ice-cold 15% trichloroacetic acid. The filters are dried and radioactivity determined in a liquid scintillation counter.

Rif-1 sarcoma = assay: In Vivo Assay for Radiosensitizing Activity (Rif-1 sarcoma); set-up: species or system mice; settings: IP 30 minutes before first x-ray dose, Days 6-10 and 13-17, x-Ray only T-C 18 days
Description: Mice were implanted with 1.9×10^5 Rif-1 sarcoma cells on Day 0. Treatment was on Days 6-10 and 13-17. On each treatment day the tumor-bearing limb received two doses of 2.5 Gy X-irradiation separated by 3 hours. Test compound was administered IP 30 minutes prior to the first x-ray dose on each treatment day. Effectiveness is measured by the T-C, the difference in days for the treated and control tumors, respectively, to reach 1000 mg.

central nervous system = settings: cited from earlier work
hypoxic tumor cells = settings: in vitro and in vivo, background, cited from earlier work

For `NC(=O)c1cccc(N)c1` [3-aminobenzamide], the “sensitization to lethal effects of radiation / inhibition of repair” value [1] is listed as “inhibit this postirradiation repair process; also recorded: repair of damage caused by exposure to DNA-damaging agents such as ionizing radiation, was inhibited”.

With `O=c1[nH]ccc2ncccc12` [Compound 3, 1,6-Naphthyridine-5(6H)-one] the IC50 [2] was 1000 to 10000 nM.

`Cc1cc2ncccc2c(=O)[nH]1` [Compound 4, 7-Methyl-1,6-naphthyridine-5 (6H) -one] gave an IC50 [2] of 1200 nM.

Work on `O=c1[nH]cc(Br)c2ncccc12` [Compound 5, 8Bromo-1,6-naphthyridine-5(6H) -one] yielded an IC50 [2] of 1000 to 10000 nM.

Molecule `O=c1[nH]ccc2c1CCCN2` [Compound 6, 1,2,3,4-Tetrahydro-1,6-naphthyridine-5(6H)-one] has an IC50 [2] of 1000 to 10000 nM.

Work on `C[n+]1cccc2c(=O)[nH]ccc21` [Compound 7, 5,6-Dihydro-1-methyl-5-oxo-1,6-naphthyridin-1-ium monoiodide] yielded an IC50 [2] of 10000 to 100000 nM.

For `CN1CCCc2c1cc[nH]c2=O` [Compound 8, 1,2,3,4-Tetrahydro-1-methyl-1,6-naphthyridin-5 (6H) one], the “T-C (days for treated minus control tumors to reach 1000 mg)” value (Rif-1 sarcoma; 340 mg/kg/inj + x-Ray (2.5 Gy × 2)) was 38 days and the IC50 [2] was 510 nM.

`O=c1[nH]ccc2c1ccc[n+]2[O-]` [Compound 9, 1,6-Naphthyridine-5(6H)-one, 1-oxide] gave an IC50 [2] of 10000 to 100000 nM.

With `O=C1NCCc2ncccc21` [Compound 13, 7,8-Dihydro-1,6-naphthyridin-5(6H)-one] the “T-C (days for treated minus control tumors to reach 1000 mg)” value (Rif-1 sarcoma; 500 mg/kg/inj + x-Ray (2.5 Gy × 2)) was 26 days and the IC50 [2] was 2500 nM.

For `CNC=O` [N-methylformamide], the “sensitization to lethal effects of radiation / inhibition of repair” value [1] is given as “sensitize tumors to the lethal effects of radiation”.

In the case of `Cc1cccc2c1CCNC2=O` [Reference Compound], the IC50 [2] is reported as 110 nM.

For `Cc1ncc([N+](=O)[O-])n1CCO` [metronidazole, 2-methyl-5-nitro-1H-imidazole-1-ethanol], the CNS side effects (central nervous system; mouse, in vivo) is listed as “peripheral neuropathy effects and convulsions in mice”, the radiosensitizing activity (hypoxic tumor cells) is listed as “effective as radiosensitizers for hypoxic cells in vivo” and the radiosensitizing activity (hypoxic tumor cells; listed as Metronidazole) is listed as “active both in vitro and in vivo as a radiosensitizer”.

For `COCC(O)Cn1ccnc1[N+](=O)[O-]` (stereo not drawn) [misonidazole, α-(methoxymethyl)-2-nitro-1H-imidazole-1-ethanol], the CNS side effects (central nervous system; administered to mice) is given as “peripheral neuropathy effects and convulsions in mice” and the radiosensitizing activity (hypoxic tumor cells) is given as “of value as a radiosensitizer for hypoxic tumor cells; also recorded: effective as radiosensitizers for hypoxic cells in vivo”.
